Some test systems named below: A549 NSCLC; COLO 205 colon; HT29 colon; K-562 leukemia; KM12 colon; MALME-3M melanoma; NCI-H23 lung; SK-MEL-2 melanoma; SNB-19 CNS; UACC-62 melanoma.
What all share (experiment): NCI-60 cell line screen, 48 h

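Grown in 96-well plates, cells were treated for 48 hours with each compound at five concentrations. Insufficient inhibition: endpoint recorded as highest concentration tested. GI50 is the concentration that inhibits growth by half. TGI: total growth inhibition.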 A value given as a limit tells only on which side of the number the result lay.

For `Cc1ccc(NC(=O)c2cccc(C(C)(C)C#N)c2)cc1Nc1ccc2ncn(C)c(=O)c2c1`, the GI50 is 8.16 µM in the experiment on A549 NSCLC; 0.0257 µM in the experiment on COLO 205 colon; 0.032 µM with HT29 colon; 0.484 µM in the experiment with K-562 leukemia; 1.66 µM in the experiment on KM12 colon; 0.304 µM in the experiment with NCI-H23 lung. Further, the GI50 in the experiment on SK-MEL-2 melanoma was 0.0692 µM; with SNB-19 CNS, 5.48 µM; in the experiment on UACC-62 melanoma it was 0.0275 µM. Further, the TGI in the experiment on A549 NSCLC was greater than 100 µM; in the experiment with COLO 205 colon, 92.2 µM; with HT29 colon it was greater than 100 µM; in the experiment with K-562 leukemia it was greater than 79.3 µM; with KM12 colon, greater than 100 µM; in the experiment on MALME-3M melanoma, 0.0434 µM. For the same molecule, the TGI in the experiment with NCI-H23 lung was greater than 100 µM; in the experiment with SK-MEL-2 melanoma it was 8.69 µM; in the experiment on SNB-19 CNS it was greater than 100 µM.

On to `Clc1cc(Cl)c2ns[s+]c2c1Cl`, for which the TGI with A549 NSCLC, in the experiment with COLO 205 colon, with HT29 colon, in the experiment on K-562 leukemia, in the experiment with KM12 colon and in the experiment on MALME-3M melanoma was greater than 100 µM each time. Moreover, the TGI with NCI-H23 lung was 85.2 µM; in the experiment with SK-MEL-2 melanoma, greater than 100 µM; in the experiment on SNB-19 CNS, greater than 100 µM; in the experiment on UACC-62 melanoma, greater than 100 µM.

Regarding `Cc1cc(C(=O)Nc2ccc3cc(CN4CCOCC4)ccc3n2)c(C)n1-c1ccccc1`, the GI50 in the experiment on A549 NSCLC was 2.42 µM; with COLO 205 colon, 1.83 µM; with HT29 colon it was 2.71 µM; in the experiment with K-562 leukemia it was 1.06 µM; with KM12 colon, 1.68 µM; in the experiment with MALME-3M melanoma it was 1.89 µM. For the same molecule, the GI50 is 0.974 µM in the experiment with NCI-H23 lung, 2.44 µM in the experiment with SK-MEL-2 melanoma, 17.6 µM in the experiment with SNB-19 CNS and 1.38 µM in the experiment with UACC-62 melanoma. For the same molecule, the TGI is 12.1 µM with A549 NSCLC; 5.07 µM in the experiment on COLO 205 colon; greater than 100 µM in the experiment with HT29 colon; greater than 55.3 µM with K-562 leukemia; 4.66 µM in the experiment with KM12 colon; 8.66 µM with MALME-3M melanoma. For the same molecule, the TGI with NCI-H23 lung was 6.77 µM; with SK-MEL-2 melanoma it was 5.89 µM; in the experiment on SNB-19 CNS, greater than 100 µM; with UACC-62 melanoma, 3.88 µM.

Take `CNC(=S)/N=C(\N)N(C)C`: the TGI with A549 NSCLC, in the experiment with COLO 205 colon, in the experiment on HT29 colon, with K-562 leukemia, with KM12 colon and with MALME-3M melanoma was greater than 100 µM each time. For the same molecule, the results for the TGI with NCI-H23 lung, in the experiment on SNB-19 CNS and in the experiment with UACC-62 melanoma were greater than 10 µM, greater than 100 µM and greater than 100 µM, respectively.

In the case of `CC1(C)C(=O)/C(=C\c2cccnc2)C[C@]2(C)[C@H]3CC[C@@H]4[C@H]5[C@H](C(=O)/C=C/c6cccnc6)CC[C@]5(C(=O)O)CC[C@@]4(C)[C@]3(C)CC[C@@H]12`, the GI50 with A549 NSCLC was 2.14 µM; in the experiment with COLO 205 colon it was 2.33 µM; in the experiment on HT29 colon, 3.09 µM; with K-562 leukemia it was 2.05 µM; with KM12 colon, 1.73 µM; in the experiment with MALME-3M melanoma, 2 µM. For the same molecule, the GI50 with NCI-H23 lung was 2.06 µM; in the experiment on SK-MEL-2 melanoma it was 2.54 µM; with SNB-19 CNS, 2.34 µM; with UACC-62 melanoma it was 2.03 µM. For the same molecule, the TGI in the experiment on A549 NSCLC amounted to 5.11 µM; with COLO 205 colon, 5.17 µM; in the experiment on HT29 colon, 10.8 µM; with K-562 leukemia, 20.5 µM; in the experiment with KM12 colon it was 3.64 µM; with MALME-3M melanoma it was 4.46 µM. The TGI was 4.87 µM in the experiment on NCI-H23 lung, 6.66 µM in the experiment with SK-MEL-2 melanoma, 5.69 µM with SNB-19 CNS and 4.02 µM in the experiment with UACC-62 melanoma.

Turning to `CC(C)c1ccc(-c2cc(-c3cn[nH]c3-c3ccccn3)ccn2)cc1`, the GI50 was 13.7 µM in the experiment with A549 NSCLC; 13.3 µM with COLO 205 colon; 6.92 µM in the experiment with HT29 colon; 9.03 µM in the experiment with K-562 leukemia; 9.83 µM with KM12 colon; 8.83 µM in the experiment on MALME-3M melanoma. For the same molecule, the GI50 was 11.7 µM in the experiment on NCI-H23 lung, 9.52 µM in the experiment on SK-MEL-2 melanoma, 20.5 µM in the experiment on SNB-19 CNS and 17.2 µM in the experiment on UACC-62 melanoma. For the same molecule, the TGI with A549 NSCLC was greater than 25 µM; with COLO 205 colon, greater than 25 µM; in the experiment with HT29 colon it was greater than 19.6 µM; with K-562 leukemia it was greater than 25 µM; in the experiment on KM12 colon, greater than 25 µM; in the experiment on MALME-3M melanoma, greater than 25 µM. The TGI with NCI-H23 lung, with SK-MEL-2 melanoma, in the experiment with SNB-19 CNS and in the experiment on UACC-62 melanoma was greater than 25 µM throughout.

Turning to `CN1CCN(CCCNc2nc3ccc(Oc4ccc(NC(=O)Nc5cc(C(F)(F)F)ccc5F)cc4)cc3[nH]2)CC1`, the GI50 was 4.31 µM in the experiment on A549 NSCLC; 4.5 µM in the experiment with COLO 205 colon; 4.09 µM with HT29 colon; 4.84 µM in the experiment on K-562 leukemia; 3.44 µM in the experiment on KM12 colon; 4.69 µM with MALME-3M melanoma. The GI50 with NCI-H23 lung was 4.03 µM; in the experiment with SK-MEL-2 melanoma it was 4.64 µM; in the experiment on SNB-19 CNS it was 3.99 µM; in the experiment with UACC-62 melanoma it was 4.1 µM. For the same molecule, the TGI in the experiment on A549 NSCLC was determined as 8.08 µM; in the experiment with COLO 205 colon, 7.97 µM; in the experiment with HT29 colon it was 7.93 µM; in the experiment on K-562 leukemia, 11.1 µM; in the experiment on KM12 colon, 6.74 µM; in the experiment with MALME-3M melanoma, 9.67 µM. For the same molecule, the TGI in the experiment with NCI-H23 lung was 7.9 µM; in the experiment with SK-MEL-2 melanoma, 8.66 µM; in the experiment with SNB-19 CNS it was 7.42 µM; with UACC-62 melanoma it was 7.66 µM.

Consider `COc1cc(OC)c(C(=O)/C=C/c2cccc(C(F)(F)F)c2)c(OC)c1`, for which the GI50 in the experiment on A549 NSCLC was 1.48 µM; in the experiment on COLO 205 colon it was 1.06 µM; with HT29 colon, 1.69 µM; with K-562 leukemia, 1.26 µM; in the experiment on KM12 colon it was 1.79 µM; with MALME-3M melanoma, 2.38 µM. Moreover, the GI50 in the experiment on NCI-H23 lung is 1.14 µM; in the experiment on SK-MEL-2 melanoma, 1.22 µM; in the experiment with SNB-19 CNS, 1.44 µM; in the experiment on UACC-62 melanoma it was 0.986 µM. The TGI was found to be 4.82 µM with A549 NSCLC; 2.21 µM in the experiment on COLO 205 colon; 4.75 µM with HT29 colon; 4.83 µM in the experiment on K-562 leukemia; 6.42 µM in the experiment with KM12 colon; 8.3 µM in the experiment with MALME-3M melanoma. The TGI in the experiment on NCI-H23 lung worked out at 3.48 µM; in the experiment with SK-MEL-2 melanoma, 3.37 µM; in the experiment with SNB-19 CNS, 4.67 µM; in the experiment with UACC-62 melanoma, 2.5 µM.
